Laboratory results: PMC2151634 (The Journal of General Physiology, 2007)

Target: T1, P2X2 receptor (Rattus norvegicus, UniProt P49653)
T1 sequence (P49653 1-472): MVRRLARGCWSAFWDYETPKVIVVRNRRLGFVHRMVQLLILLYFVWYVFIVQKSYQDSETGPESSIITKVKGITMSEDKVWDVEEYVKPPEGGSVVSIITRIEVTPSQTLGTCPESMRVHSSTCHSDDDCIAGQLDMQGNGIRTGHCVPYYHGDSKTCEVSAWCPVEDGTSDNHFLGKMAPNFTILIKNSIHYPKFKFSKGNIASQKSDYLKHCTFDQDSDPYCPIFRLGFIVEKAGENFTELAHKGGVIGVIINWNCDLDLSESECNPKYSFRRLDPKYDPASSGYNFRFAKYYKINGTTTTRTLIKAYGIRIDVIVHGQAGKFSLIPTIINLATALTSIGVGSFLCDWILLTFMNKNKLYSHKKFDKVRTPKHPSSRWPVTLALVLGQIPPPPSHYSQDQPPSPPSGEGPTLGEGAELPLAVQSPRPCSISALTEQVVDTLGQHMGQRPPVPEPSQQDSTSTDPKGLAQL
Test: outside-out patch clamp, peak current, 2-s ATP pulses
Type: cell-based

Work on Nc1ncnc2c1ncn2[C@@H]1O[C@H](COP(=O)(O)OP(=O)(O)OP(=O)(O)O)[C@@H](O)[C@H]1O [ATP] yielded an EC50 of 9.8 µM.
